Laboratory results as given in patent publication US8003312B2, “Multiplex cellular assays using detectable cell barcodes” (The Board of Trustees of the Leland Stanford Junior …, priority 2007, dated 2011).

What was measured:
Stat3 phosphorylation = test: Miniature drug screen by FCB phospho flow in U937 cells: IL-6-induced pStat3; assay type: cell-based, human; conditions: added 30 min before stimulation with IFN-γ, IL-6 and GM-CSF
Protocol: (§1) FIG. 4. FCB of 36 samples increases throughput of phospho flow. (a) Efficient barcoding of 36 samples. U937 cells were left untreated or were stimulated with IFN-γ (10 ng/ml) for 10 min. Unstimulated and stimulated samples were added to a 96-well plate in an alternating pattern across each row and down each column and labeled with six concentrations of Pacific Blue-NHS (0, 0.15, 0.6, 2.5, 10 or 40 μg/ml) and/or Alexa 488-NHS (0, 0.07, 0.3, 1.3, 5 or 20 μg/ml). […] Reverse deconvolution (bottom panel) of all stimulated or unstimulated cells produced the expected checkerboard pattern. (b) Miniature drug screen and titration of inhibitors with FCB. U937 cells were treated with various drugs before stimulation with IFN-γ, IL-6 and GM-CSF (stimulation). WHI-P154 (WHI; 50 μM), PD98059 (PD; 20 μM), Jak inhibitor I (Jak-1; 5 μM), and wortmannin (Wort; 2 μM) were added to the cells 30 min before stimulation; samples were barcoded with Pacific Blue-NHS and simultaneously stained with pStat1 Alexa 488, pStat3 PE and pStat5 Alexa 647 (left three plots). Jak inhibitor I was added at 0.005, 0.05, 0.5 or 5 μM for 30 min before stimulation (middle). WHI-P154 was added at 0.1, 1, 10 or 100 μM for 30 min before stimulation (right). Non-drug-treated positive and negative controls are included within each FCB staining set, allowing for internal normalization of each staining cocktail. […]

Stat5 phosphorylation = test: Miniature drug screen by FCB phospho flow in U937 cells: GM-CSF-induced pStat5; assay type: cell-based, human; conditions: added 30 min before stimulation with IFN-γ, IL-6 and GM-CSF
Protocol: as §1

Stat signaling = test: Miniature drug screen and inhibitor titration in U937 cells: Stat signaling overall (pStat1, pStat3, pStat5); assay type: cell-based, human; conditions: for order of selectivity for the cytokine pathways: titration (Jak inhibitor I 0.005-5 μM, WHI-P154 0.1-100 μM), 30 min before stimulation
Protocol: FIG. 4. FCB of 36 samples increases throughput of phospho flow. (a) Efficient barcoding of 36 samples. U937 cells were left untreated or were stimulated with IFN-γ (10 ng/ml) for 10 min. Unstimulated and stimulated samples were added to a 96-well plate in an alternating pattern across each row and down each column and labeled with six concentrations of Pacific Blue-NHS (0, 0.15, 0.6, 2.5, 10 or 40 μg/ml) and/or Alexa 488-NHS (0, 0.07, 0.3, 1.3, 5 or 20 μg/ml). […] Reverse deconvolution (bottom panel) of all stimulated or unstimulated cells produced the expected checkerboard pattern. (b) Miniature drug screen and titration of inhibitors with FCB. U937 cells were treated with various drugs before stimulation with IFN-γ, IL-6 and GM-CSF (stimulation). WHI-P154 (WHI; 50 μM), PD98059 (PD; 20 μM), Jak inhibitor I (Jak-1; 5 μM), and wortmannin (Wort; 2 μM) were added to the cells 30 min before stimulation; samples were barcoded with Pacific Blue-NHS and simultaneously stained with pStat1 Alexa 488, pStat3 PE and pStat5 Alexa 647 (left three plots). Jak inhibitor I was added at 0.005, 0.05, 0.5 or 5 μM for 30 min before stimulation (middle). WHI-P154 was added at 0.1, 1, 10 or 100 μM for 30 min before stimulation (right). Non-drug-treated positive and negative controls are included within each FCB staining set, allowing for internal normalization of each staining cocktail.
We next applied the FCB platform to a drug screening profile, as a real-world example of how the technique could be used to enhance analysis throughput and reproducibility (FIG. 4b). Using Pacific Blue as the FCB reagent, we pretreated U937 cells with four small-molecule inhibitors: wortmannin (a PI-3 kinase inhibitor), Jak inhibitor I (an inhibitor of all Jak kinases), PD98059 (an MEK inhibitor) and WHI-P154 (a Jak3 inhibitor). We then stimulated the cells simultaneously with IFN-γ, IL-6 and granulocyte-monocyte colony-stimulating factor (GM-CSF) to induce pStat1, pStat3 and pStat5, respectively. […]

Stat1 phosphorylation = test: Miniature drug screen by FCB phospho flow in U937 cells: IFN-γ-induced pStat1; assay type: cell-based, human; conditions: added 30 min before stimulation with IFN-γ, IL-6 and GM-CSF
Protocol: as §1

[1] = system: pStat1 in CD4+ and CD4− T cells; test: IFN-γ time course and dose titration in primary mouse splenocytes: pStat1 in T cells; assay type: cell-based
Protocol: (§2) FIG. 6. Use of FCB to label primary cell populations. […] (a) Mouse splenocytes were stimulated with different concentrations of IFN-γ across each row (0, 0.17, 0.5, 1.5, 4.5, 13, 40, 120, 370, 1,100, 3,300 or 10,000 pg/ml) for 0, 4, 8, 15, 30, 60, 120 or 180 min (each row representing a different time point). Cells were barcoded with three FCB markers (Alexa 700, Alexa 488 and Pacific Blue as in FIG. 5) during permeabilization, and stained with CD11b Cy5.5PerCP, B220 QD605, TCR PE, CD4 Cy7PE and pStat1 Alexa 647. Cell types were first gated based on surface markers to obtain CD11b-hi cells (neutrophils), B cells, CD4+ T cells and CD4-T cells. Each cell type was then deconvoluted to obtain the original 96-well plate layout. (b) Heat map representation showing the fold change in pStat1 levels on a log 2 scale across dose (from left to right) and time gradients (top to bottom). Yellow represents maximal induction, red indicates half-maximal induction, and black indicates no induction. Note that the scale for each cell type is different owing to different maximal induction of Stat1 phosphorylation.
(§3) Primary cells, and diseased cells from patients, are a limited resource and are not amenable to the majority of high-throughput screening systems. Therefore, we tested whether FCB could be applied to large-scale signaling profiling of heterogeneous populations of normal and/or diseased cells (refs. 13, 14). To this end, we stimulated primary mouse splenocytes with IFN-γ in a 96-well plate format, and asked whether different cell types show different kinetics and thresholds of responsiveness to IFN-γ. We performed a time course of stimulation across 11 different concentrations of the cytokine. Here, to discriminate cell types in addition to measuring phosphorylation levels, we stained the cells with pStat1 Alexa 647 and four surface marker antibodies: B220, TCR, CD4 and CD11b (for a total of eight colors: three FCB markers, four surface antibodies and one phospho antibody). We first gated cell types based on surface marker expression to obtain B cells, CD4+ T cells, CD4− T cells and CD11b-hi cells (neutrophils) 25 (FIG. 6a). We then deconvoluted each cell type to obtain the original plate layout.
We cultured U937 cells, a monocytic lymphoma cell line, and Jurkat T cells in RPMI-1640 containing 10% fetal bovine serum, 100 U/ml penicillin, 100 μg/ml streptomycin, 1 mM L-glutamine (RPMI-10), and stimulated cells at a density of 10^6 cells/ml. We obtained splenocytes from BALB/c mice by homogenization and resuspended them in RPMI-10 at 5 106 cells/ml. Splenocytes were rested for 2-3 h at 37° C. before stimulation13. We stimulated cells in 96-well deep block plates (2-ml capacity) by adding the appropriate cytokine or stimulus directly to the culture medium without prior starvation. […]

pStat1 in B cells = test: IFN-γ time course and dose titration in primary mouse splenocytes: pStat1 in B cells; assay type: cell-based
Protocol: as §2
as §3, with “We first gated cell types based on surface marker expression to obtain B cells, CD4+ T cells, CD4− T cells and CD11b-hi cells (neutrophils) 25 (FIG. 6a). We then deconvoluted each cell type to obtain the original plate layout.” left out

[2] = system: pStat1 in CD11b-hi cells (neutrophils); test: IFN-γ time course and dose titration in primary mouse splenocytes: pStat1 in neutrophils; assay type: cell-based
Protocol: as §2
as §3, with “We first gated cell types based on surface marker expression to obtain B cells, CD4+ T cells, CD4− T cells and CD11b-hi cells (neutrophils) 25 (FIG. 6a). We then deconvoluted each cell type to obtain the original plate layout.” left out

[3] = system: Stat1 and ERK phosphorylation; test: 96-well FCB drug screen in Jurkat cells: class of drug activity, pERK versus pStat1; assay type: cell-based, human; conditions: 20 μM, 45 min before stimulation with anti-CD3, anti-CD28 and IFN-γ for 5 min
Protocol: (a) Layout of screening experiment. Jurkat cells were treated with 70 known small-molecule kinase or phosphatase inhibitors (20 μM), Jak inhibitor I (2 μM) or U0126 (20 μM) for 45 min before stimulation with 5 μg/ml anti-CD3 and anti-CD28 and 10 ng/ml IFN-γ for 5 min. […] After fixation, cells were barcoded with Alexa 700-NHS (0, 0.06, 0.25 or 1 μg/ml) to delineate the four quadrants of the 96-well plate. Each quadrant was subdivided into four rows labeled with Pacific Blue-NHS (0, 0.04, 0.2 or 1 μg/ml) and six columns labeled with Alexa 488-NHS (0, 0.02, 0.06, 0.18, 0.5 or 1.5 μg/ml). […] (c) Heat map representation of percent inhibition of ERK and Stat1 phosphorylation. […] Wells with black triangles were excluded from the analysis due to high fluorescence of the drug in the phospho-protein fluorescence channels. […] (d) Two-dimensional plots of pERK versus pStat1.
For this purpose, we designed an FCB labeling scheme using three dyes to barcode 96 samples (FIG. 5). With this FCB setup, we screened a small-molecule library of 70 previously characterized kinase and phosphatase inhibitors for their ability to inhibit T-cell receptor-mediated ERK phosphorylation and/or Stat1 phosphorylation induced by IFN-γ (FIG. 5a). After addition of inhibitors, stimulation, fixation and barcoding, we combined all 96 samples into one sample and stained it with phycoerythrin-labeled antibodies against phosphorylated ERK (pERK PE) and pStat1 Alexa 647 antibodies (for a total of five fluorophores: three FCB reagents and two antibodies).
We cultured U937 cells, a monocytic lymphoma cell line, and Jurkat T cells in RPMI-1640 containing 10% fetal bovine serum, 100 U/ml penicillin, 100 μg/ml streptomycin, 1 mM L-glutamine (RPMI-10), and stimulated cells at a density of 10^6 cells/ml. […] We stimulated cells in 96-well deep block plates (2-ml capacity) by adding the appropriate cytokine or stimulus directly to the culture medium without prior starvation. After a 10-15-min incubation, we fixed cells with 1.6% formaldehyde for 10 min and then proceeded with the FCB phospho flow protocol below. Where inhibitors were used, we added these compounds 30 min before stimulation.
We performed phospho flow as previously described (ref. 4) with slight modifications to include FCB labeling. After formaldehyde fixation, we resuspended samples in 100% 20-25° C. methanol (typically 500 μl per 10^6 cells) containing the indicated concentration of Alexa Fluor or Pacific Blue succinimidyl esters, with each sample receiving a different concentration of fluorescent dye.

[4] = system: Stat1 and ERK phosphorylation; test: Titration of four screening hits in Jurkat cells using six-sample FCB (pStat1, pERK); assay type: cell-based, human; conditions: 30 min before IFN-γ (10 ng/ml) and anti-CD3/28 (5 μg/ml each)
Protocol: FIG. 8. Detailed titration of four hits from Jurkat drug screening experiment (FIG. 5). a) Four compounds: Bay11-7082, Indirubin-3-monoxime, PP2, and ZM449829 were added to Jurkat cells at different concentrations for 30 min prior to stimulation with IFN-γ (10 ng/ml) and anti-CD3/28 (5 μg/ml each). The cells were fixed and permeabilized, then stained with pStat1 Ax647 and pERK Ax488 antibodies. Percent inhibition of phosphorylation was plotted against concentration of drugs and fitted with a logistic regression curve to obtain IC50 values. Numbers in the top right of each plot are the IC50 value in μM units. b) Lysates were prepared from the same cells used for phospho flow and analyzed by western blot with pStat1 and pERK antibodies. Drugs were applied at 20 μM (same concentration as initial screen) for western blot analysis.
Because a few of these hits were unexpected, we performed titration experiments using six-sample FCB on four of the compounds to validate the results (FIG. 8).
We calculated fold change of phosphorylation upon stimulation by dividing median fluorescence intensity (MFI) of stimulated samples by the MFI of unstimulated samples: FC=MFIstim/MFIunstim. For heat map analysis, FC was converted to log2 values to enhance visualization and so that samples showing no change have a value of zero. To measure drug activity, we calculated percent inhibition as follows: Percent Inhibition=1−((MFItreated ? MFIunstim)/(MFIstim ? MFIunstim)), where “treated” denotes drug treated (and stimulated) samples, “stim” denotes control stimulated (non drug treated) samples, and “unstim” denotes control unstimulated (non drug treated) samples. We calculated Z′-factor from control stimulated and unstimulated samples by the following: Z′-factor=1 ? ((3[…]SDstim 3[…]SDunstim)/(meanstim ? meanunstim)), where “SD” denotes standard deviation of the mean, and “mean” denotes the mean of either stimulated or unstimulated MFI values. Z′-factor is an indication of the robustness and suitability of an assay for high throughput screening, with values from 0.5 to 1 indicating an excellent assay, 0 to 0.5 indicating a usable assay, and less than 0 indicating the assay has too much noise or inadequate dynamic range.

COc1cc2ncnc(Nc3ccc(O)c(Br)c3)c2cc1OC [WHI-P154]
inhibition of Stat3 phosphorylation (Stat3 phosphorylation; 50 μM): 100% | inhibition of Stat5 phosphorylation (Stat5 phosphorylation; 50 μM): 40% | order of selectivity for the cytokine pathways (Stat signaling): IL-6-Stat3>IFN-γ-Stat1>GM-CSF-Stat5 | inhibition of Stat1 phosphorylation (Stat1 phosphorylation; 50 μM): 80%

IFN-γ: mouse IFN-γ from BD Pharmingen, cytokine used to stimulate primary mouse splenocytes
half-maximal response concentration (EC50), pStat1 induction ([1]; CD4+ T cells of mouse splenocytes): 50 pg/ml | maximum induction of pStat1 ([1]; CD4+/CD4− T cells of mouse splenocytes): 19-23 fold | half-maximal response concentration (EC50), pStat1 induction ([1]; CD4− T cells of mouse splenocytes): 50 pg/ml | time of maximal pStat1 induction ([1]; T cells of mouse splenocytes): 30 min | maximum induction of pStat1 (pStat1 in B cells): 19-23 fold | time of maximal pStat1 induction (pStat1 in B cells): 8-30 min | EC50, pStat1 induction (pStat1 in B cells; B cells of mouse splenocytes): 220 pg/ml | maximum induction of pStat1 [2]: 4.5 fold | time of maximal pStat1 induction [2]: 30-60 min | EC50, pStat1 induction ([2]; neutrophils (CD11b-hi cells) of mouse splenocytes): 400 pg/ml

O=C1Nc2ccccc2/C1=C1/Nc2ccccc2/C1=N\O [indirubin-3′-monooxime]
class of drug activity (selectivity, Stat1 versus ERK phosphorylation) [3]: selectivity for inhibiting Stat1 phosphorylation | selectivity for Stat1 (over ERK) phosphorylation [4]: extremely selective

Jak inhibitor I
inhibition of Stat3 phosphorylation (Stat3 phosphorylation; 5 μM): completely abrogating | inhibition of Stat5 phosphorylation (Stat5 phosphorylation; 5 μM): completely abrogating | order of selectivity for the cytokine pathways (Stat signaling): IL-6-Stat3>IFN-γ-Stat1>GM-CSF-Stat5 | inhibition of Stat1 phosphorylation (Stat1 phosphorylation; 5 μM): completely abrogating

CCCCCCCCCCCCC/C=C/[C@@H](O)[C@@H](N)CO [sphingosine]
class of drug activity (selectivity, Stat1 versus ERK phosphorylation) [3]: selectively inhibited ERK phosphorylation

COc1cccc(-c2cc(=O)c3ccccc3o2)c1N [PD98059]
effects on Stat signaling (Stat signaling; 20 μM, added 30 min before stimulation with IFN-γ, IL-6 and GM-CSF): no or minor effects

C=CC(=O)c1ccc2ccccc2c1 [ZM-449829]
class of drug activity (selectivity, Stat1 versus ERK phosphorylation) [3]: inhibited both Stat1 and ERK phosphorylation potently | selectivity between ERK and Stat1 phosphorylation [4]: little selectivity

CC(C)(C)n1nc(-c2ccc(Cl)cc2)c2c(N)ncnc21 [PP2]
class of drug activity (selectivity, Stat1 versus ERK phosphorylation) [3]: selectively inhibited ERK phosphorylation | selectivity for ERK (over Stat1) phosphorylation [4]: extremely selective

N#CC(=C(/N)Sc1ccccc1N)/C(C#N)=C(\N)Sc1ccccc1N [U0126]
class of drug activity (selectivity, Stat1 versus ERK phosphorylation) [3]: selectively inhibited ERK phosphorylation
